This is an account of results in publication PMC11012064, “Synthesis of Antiprotozoal 2-(4-Alkyloxyphenyl)-Imidazolines and Imidazoles and Their Evaluation on Leishmania mexicana and Trypanosoma cruzi” (International Journal of Molecular Sciences, 2024).

The test system of data set [1] is T. cruzi INC-5 epimastigotes. The data set can be described thus: Metabolic inhibition of Trypanosoma cruzi INC-5 epimastigotes, colorimetric analysis with MTT. In kind it is cell-based. Particulars: for IC50: Trypanosoma cruzi, 24 h, 24 h + 20 h MTT, 27 °C, confidence interval (Probit) in parentheses, triplicate; for IC50 / activity on T. cruzi (in words): epimastigotes; for activity on T. cruzi (in words): in vitro; for SI (CC50/IC50) T. cruzi: CC50 macrophages J774 / IC50 T. cruzi INC-5 epimastigotes. On the procedure:
Epimastigotes of T. cruzi INC-5 were harvested after 7 days of growth in culture. […] The microplate was incubated in the dark at 27 °C for 24 h. Epimastigotes with 0.5% DMSO served as the positive viability control and the reference drugs nifurtimox ([…], Bayer, Germany) and benznidazole (Rochagan, Roche, Brazil) served as the negative viability control. Each condition was assayed in triplicate. Upon completion of the incubation time, 10 μL of MTT solution at 5 mg/mL was added to each well, and incubation continued in the dark at 27 °C for 20 h. Then, 100 μL of a solution containing 10% SDS and 0.01 M HCl was added to stop the reaction. […] The plates were read on a spectrophotometer (Spectramax Plus, Molecular Devices) at an absorbance of 570 nm. The result found in each well with a given concentration of the respective compound was compared to the positive viability control and the metabolic inhibition was expressed as a percentage. The IC50 was determined using the Probit statistical tool. MTT is a yellow, water-soluble compound. In living cells, […] is captured and reduced to its insoluble form (formazan, which is purple) by mitochondrial succinate dehydrogenase. The quantity of living cells is proportional to the amount of formazan produced.

In data set [2] the test system is L. mexicana promastigotes. The data set can be described thus: Metabolic inhibition of Leishmania mexicana promastigotes, fluorometric analysis with resazurin. In kind it is cell-based. As to conditions: for SI (CC50/IC50) L. mexicana: CC50 macrophages J774 / IC50 L. mexicana promastigotes; for IC50: Leishmania mexicana, 48 h, read-out: L. mexicana Promastigotes IC50, promastigotes, 24 h + 24 h resazurin, 27 °C, confidence interval (Probit) in parentheses, triplicate; for activity on L. mexicana (in words): promastigotes, in vitro. On the procedure:
A promastigote culture of L. mexicana was harvested in the stationary phase after 7 days of growth in culture. To each well of a sterile 96-well microplate, 5 × 10^5 promastigotes and the compound to be assessed (or the reference drug) were added to a final volume of 100 μL in RPMI culture medium supplemented with 10% SFB and 1% ampicillin/streptomycin. Each compound was examined at different concentrations, obtained by serial two-fold dilutions starting from 50 μg/mL. […] Promastigotes with 0.5% DMSO (at the vehicle concentration of the greatest dilution of the compound) served as the positive viability control and amphotericin B at a final concentration of 5 μg/mL served as the negative viability control. Each condition was assayed in triplicate.
After 24 h of incubation, 10 μL of 0.01% resazurin was added to each of the wells and incubation continued for another 24 h under the same conditions. The plate was read via a fluorometer (Spectramax M3, Molecular Devices, LLC, San Jose, CA, USA) at 544 nm excitation and 590 nm emission. Each treated well was compared to the positive viability control, and metabolic inhibition was expressed as a percentage. The IC50 value was determined with the Probit statistical tool version 4.1 [31, 32, 33].
Resazurin is a blue, permeable, and non-fluorescent compound. Upon entering cells, it is reduced to resorufin due to the reducing environment of the cytosol in living cells. Resorufin is red and highly fluorescent. The number of living cells is proportional to the fluorescence intensity of resorufin [31].

A short description of data set [3]: Cytotoxic effect on macrophages, resazurin. Type of data set: cell-based, murine. Particulars: mouse, J774A.1 macrophages; J774A.1 murine macrophages, 20 h + 4 h resazurin; confidence interval (Probit) in parentheses; triplicate; read-out: Macrophages J774 CC50. On the procedure:
(§1) The microplate was incubated at 37 °C with 5% CO2 and humidity for 24 h to allow for the formation of a cell monolayer with a confluence of 80%. Subsequently, a concentration–response evaluation was carried out. Briefly, one of the compounds at the corresponding concentration was placed in each well with macrophages. […] As the negative cytotoxicity control, cells were exposed to 1% DMSO. The microplate was incubated at 37 °C with 5% CO2 and humidity for 20 h. Afterwards, 10 μL of 0.01% resazurin was added and the microplate was incubated for 4 h. As mentioned above, the microplate was read via a fluorometer at 544 nm excitation and 590 nm emission. Each treated well was compared to the negative cytotoxicity control and the data were expressed as a percentage of metabolic inhibition. The Probit statistical tool was used to calculate the CC50.
(In general: Resazurin is reduced to fluorescent resorufin, in cell work by metabolically active cells.)

A further data set concerns J774A.1 macrophages. The data set can be described thus: Cytotoxic effect on macrophages, resazurin. In kind it is cell-based, murine. Particulars: murine macrophage cell line. The method, then:
as §1

As a reminder, the IC50 is the concentration that gives 50% inhibition. One may read the melting point as the temperature, or range, at which the solid turns liquid. The term CC50 denotes the concentration giving 50% cytotoxicity. `CCCCOc1ccc(C2=NCCN2)cc1` [compound 26, 2-(4-Butyloxyphenyl)-4,5-dihydro-1H-imidazole] returned a melting point of 122 to 123 °C. For the same compound, in data set [1], the IC50 came out at 48.7 µg/mL. In addition, in data set [2], the “SI (CC50/IC50) L. mexicana” value is greater than 37.98 and the IC50 was 2.63 µg/mL. For the same compound, in data set [3], the CC50 was greater than 100 µg/mL.
As for `CCCCCCCCCOc1ccc(-c2ncc[nH]2)cc1` [compound 36, 8-Nonyloxyphenyl-2-imidazole], in data set [1], the IC50 is less than 1 µg/mL and the “activity on T. cruzi (in words)” value was “active”. Also, in data set [2], the “SI (CC50/IC50) L. mexicana” value was 28.53, the IC50 amounted to 1.09 µg/mL and the “activity on L. mexicana (in words)” value is reported as “active”. Besides, the CC50 in data set [3] is 31.3 µg/mL.
With `C[C@@H]1[C@H](O)[C@@H](C)/C=C/C=C/C=C/C=C/C=C/C=C/C=C/[C@H](O[C@@H]2O[C@H](C)[C@@H](O)[C@H](N)[C@@H]2O)C[C@@H]2O[C@](O)(C[C@@H](O)C[C@@H](O)[C@H](O)CC[C@@H](O)C[C@@H](O)CC(=O)O[C@H]1C)C[C@H](O)[C@H]2C(=O)O` [AmB, amphotericin, reference compound], in data set [2], the “SI (CC50/IC50) L. mexicana” value came out at 253.26 and the IC50 is 0.19 µg/mL. Also, the CC50 in data set [3] turned out to be 48.1 µg/mL.
As for `CCOc1ccc(C2=NCCN2)cc1` [compound 23, 2-(4-Ethoxyphenyl)-4,5-dihydro-1H-imidazole], the melting point lay within 180 to 182 °C. For the same compound, in data set [1], the IC50 is greater than 50 µg/mL and the “activity on T. cruzi (in words)” value was “inactive”. Also, in data set [2], the “SI (CC50/IC50) L. mexicana” value is on record as greater than 13.12 and the 50% inhibitory concentration (IC50) was 7.62 µg/mL. The CC50 in data set [3] is greater than 100 µg/mL. For the same compound, the “cytotoxic effect on macrophages (in words)” value with J774A.1 macrophages is given as “least cytotoxic effect”.
In turn, `CCCCCCCCCOc1ccc(C2=NCCN2)cc1` [compound 31] came in with a melting point of 103 to 105 °C. In addition, in data set [1], the “SI (CC50/IC50) T. cruzi” value was found to be 2.40 and the IC50 came to 21 µg/mL. Moreover, in data set [2], the “SI (CC50/IC50) L. mexicana” value came out at 92.56 and the IC50 is less than 1 µg/mL. Besides, the CC50 in data set [3] was 50.6 µg/mL.
With `CCCCCOc1ccc(C2=NCCN2)cc1` [compound 27, 8-Penthyloxyphenil-2-imidazoline], the melting point lay in the range of 129 to 131 °C. In data set [1], the “SI (CC50/IC50) T. cruzi” value amounted to 1.90 and the IC50 was determined as 37.5 µg/mL. In addition, in data set [2], the “SI (CC50/IC50) L. mexicana” value is 88.28 and the half-maximal inhibitory concentration (IC50) is less than 1 µg/mL. For the same compound, the CC50 in data set [3] came to 71.3 µg/mL.
Compound `O=c1[nH]c2ccccc2nc1CBr` [compound 38, 3-(Bromomethyl)quinoxalin-2(1H)-one] registered a melting point of 224 to 226 °C. In data set [1], the IC50 is greater than 50 µg/mL and the “activity on T. cruzi (in words)” value is “no effect was detected”. For the same compound, in data set [2], the IC50 is greater than 50 µg/mL and the “activity on L. mexicana (in words)” value is “no effect was detected”.
For `CCCCCCOc1ccc([C@@H](O)[C@@H](O)c2ccc(OCCCCCC)cc2)cc1` [compound 37, (1R,2S)-1,2-bis(4-hexyloxyphenyl)ethane-1,2-diol], the melting point was in the range of 122 to 123 °C. For the same compound, in data set [1], the IC50 was greater than 50 µg/mL and the “activity on T. cruzi (in words)” value is reported as “inactivity”. In data set [2], the 50% inhibitory concentration (IC50) was greater than 50 µg/mL and the “activity on L. mexicana (in words)” value was “inactivity”.
On to `CC1CS(=O)(=O)CCN1/N=C/c1ccc([N+](=O)[O-])o1` (stereo not drawn) [Nfx, nifurtimox, reference compound], for which, in data set [1], the “SI (CC50/IC50) T. cruzi” value was found to be 23.10 and the IC50 stood at 2.5 µg/mL. The CC50 in data set [3] is 57.8 µg/mL.
For `CCCCCCCCOc1ccc(-c2ncc[nH]2)cc1` [compound 35, 8-Octyloxyphenyl-2-imidazole], the melting point was 117 to 119 °C. Also, the “activity on T. cruzi (in words)” value in data set [1] is “active”. In data set [2], the “SI (CC50/IC50) L. mexicana” value came to 14.92, the IC50 stood at 2.69 µg/mL and the “activity on L. mexicana (in words)” value is “active”. Besides, the CC50 in data set [3] came to 40.2 µg/mL.
Regarding `COc1ccc(C2=NCCN2)cc1` [compound 22, 2-(4-Methoxyphenyl)-4,5-dihydro-1H-imidazole], in data set [1], the IC50 is greater than 50 µg/mL and the “activity on T. cruzi (in words)” value is “inactive”. In data set [2], the “SI (CC50/IC50) L. mexicana” value is listed as greater than 6.23 and the IC50 stood at 16 µg/mL. Further, in data set [3], the CC50 is greater than 100 µg/mL. Also, the “cytotoxic effect on macrophages (in words)” value with J774A.1 macrophages is “least cytotoxic effect”.
`CCCCCCCOc1ccc(C2=NCCN2)cc1` [compound 29, 8-Hepthyloxyphenyl-2-imidazoline] displayed a melting point of 100 to 102 °C. The “SI (CC50/IC50) L. mexicana” value in data set [2] is on record as 106.21. For the same compound, the CC50 in data set [3] was determined as 21.5 µg/mL.
The compound `CCCCCCOc1ccc(-c2ncc[nH]2)cc1` [compound 33, 8-Hexyloxyphenyl-2-imidazole] displayed a melting point of 133 to 135 °C. For the same compound, in data set [1], the IC50 was less than 10 µg/mL and the “activity on T. cruzi (in words)” value is listed as “active”. In addition, in data set [2], the “SI (CC50/IC50) L. mexicana” value turned out to be 25.21, the IC50 came to 3.4 µg/mL and the “activity on L. mexicana (in words)” value was “active”. Also, in data set [3], the CC50 came to 85.7 µg/mL.
Consider `O=C(Cn1ccnc1[N+](=O)[O-])NCc1ccccc1` [Bnz, benznidazole, reference compound], for which, in data set [1], the “SI (CC50/IC50) T. cruzi” value came out at 8.31 and the IC50 is 11 µg/mL. The CC50 in data set [3] was 91.6 µg/mL.
`CCCOc1ccc(C2=NCCN2)cc1` [compound 24, 2-(4-Propyloxyphenyl)-4,5-dihydro-1H-imidazole] yielded a melting point of 121 to 122 °C.
Compound `CC(C)Oc1ccc(C2=NCCN2)cc1` [compound 25, 2-(4-iso-propyloxyphenyl)-4,5-dihydro-1H-imidazole] displayed a melting point of 151 to 153 °C.
`CCCCCCOc1ccc(C2=NCCN2)cc1` [compound 28, 8-Hexyloxypheny-2-imidazoline] returned a melting point of 133 to 135 °C. In addition, in data set [1], the “SI (CC50/IC50) T. cruzi” value came out at 1.16 and the concentration for half-maximal inhibition (IC50) is 25.1 µg/mL. Also, in data set [2], the “SI (CC50/IC50) L. mexicana” value is given as 166.31. In data set [3], the CC50 turned out to be 29.2 µg/mL.
As for `CCCCCCCCOc1ccc(C2=NCCN2)cc1` [compound 30], the melting point lay within 102 to 104 °C. In data set [1], the IC50 was less than 1 µg/mL and the “activity on T. cruzi (in words)” value is “active”. In addition, in data set [2], the “SI (CC50/IC50) L. mexicana” value is on record as 48.11 and the “activity on L. mexicana (in words)” value was “active”. The half-maximal cytotoxic concentration (CC50) in data set [3] was 9.72 µg/mL.
